The values below come from ChEMBL document CHEMBL1157539, “Thousands of chemical starting points for antimalarial lead identification” (Nature, 2010).

Each structure is given as a SMILES string.

For this assay, the system named is Plasmodium falciparum. Kind of assay: GSK_TCMDC: Inhibition of Plasmodium falciparum 3D7 in whole erythrocytes, using parasite LDH activity as an index of growth. It counts as functional, organism-based. The following applies: Plasmodium falciparum, 3D7.
Turning to `COc1ccc2nc(-c3ccccc3)cc(N/N=C/c3ccc([N+](=O)[O-])o3)c2c1`, the XC50 turned out to be 0.202 µM.
The result for `c1cc(-c2nc3ccccc3[nH]2)nc(-c2nc3ccccc3[nH]2)c1` reads 1.12 µM; that for `N=c1n(CCN2CCCCC2)c2ccccc2n1CC(O)c1cccc(Br)c1` (centres undefined), 1.14 µM.
Then `O=C(NCCN1CCCC1)c1cc(-c2ccc(Cl)c(O)c2)c(-c2ccncc2)o1`, with 1.63 µM; and `CC1CN(c2nc(NCCc3ccc(O)cc3)nc(NCc3ccccc3-c3ccc(C(F)(F)F)cc3)n2)CC(C)N1` (centres undefined), with 0.529 µM.
With `CCCCCCCN1CC[C@@H](CCCc2ccnc3ccc(OC)cc23)[C@@H](CNC)C1`, the XC50 amounted to 0.211 µM.
Then `c1ccc2c(C3CCN(CCCCOc4ccc5c(c4)CCN(C4CCC4)CC5)CC3)c[nH]c2c1`, with 0.705 µM; and `O=C(Nc1cccc(-c2cccc(-c3nc4ccccc4[nH]3)c2)c1)Nc1ccc(F)c(F)c1F`, with 0.0551 µM; and `CN(C)CCOc1ccc(-c2cc(-c3ccc(Cl)c(O)c3)c(-c3ccncc3)[nH]2)cc1`, with 0.58 µM.
In the case of `CN(C)CCC1CCCc2ccc(NC(=O)Nc3cccc(Cl)c3Cl)cc21` (centres undefined), the XC50 turned out to be 0.958 µM.
Then `Cc1ccc(NC(=S)NC2CCN(CCCCCNC(=O)/C=C/c3ccc(Cl)c(Cl)c3)CC2)cc1Cl`, with 0.992 µM; and `CCCCOC(=O)c1ccc(NC(=O)Nc2ccc(Cn3ncc(N4CCCNCC4)c(Cl)c3=O)cc2)cc1`, with 0.739 µM; and `O=C(NCCCN1CCC(NC(=O)c2ccc(-c3cccnc3)cc2)CC1)c1ccc(Cl)c(Cl)c1`, with 0.854 µM.
The result for `CN(CCO)Cc1ccc(-c2ccc(NS(=O)(=O)c3cccc4cccnc34)cc2)cc1` reads 0.795 µM; that for `COc1cc(OC)c(NC(=O)C2c3ccccc3C(=O)N(C)C2c2cccs2)cc1Cl` (centres undefined), 0.764 µM.
Then `Cc1cc(C(=O)OCC(=O)Nc2c(C)n(C)n(-c3ccccc3)c2=O)c(C)n1-c1ccc(F)cc1`, with 0.0539 µM; and `CCCCNc1nccc2ccc(-c3ccncc3)cc12`, with 0.775 µM.
The compound `COc1ccc2ccccc2c1CNCC1CCN(CC2CCCCC2)CC1` had an XC50 of 0.761 µM.
Then `CCc1ccc(C2CCN(CCCCNC(=O)c3ccc(-c4ccc(C(F)(F)F)cc4)cc3)CC2)c(OCCO)c1`, with 0.41 µM.
Then `COc1ccccc1CCC(C)(C)NC(=O)CC(CCc1ccccc1)Nc1ccc(C#N)c2ccccc12` (centres undefined), with 0.919 µM; and `Cc1cc(NC2CCCC2)nc(Nc2ccc(F)cc2)n1`, with 0.471 µM; and `NC(Cc1cccc(I)c1)C(=O)NCC1CCCO1` (centres undefined), with 0.895 µM.
The result for `Cc1cccc2nc(-c3cccc(-c4cccc(NC(=O)c5ccc(=O)[nH]n5)c4)c3)[nH]c12` reads 0.789 µM.
`CN(C)CCNCc1ccc(-c2ccc3c(Nc4ccc(Oc5ccccc5)cc4)ccnc3c2)o1` yielded an XC50 of 0.28 µM.
The result for `COc1ccc(C(=O)N2CCC3(CC2)C(=O)N(CC(=O)NC2CCCCC2)CN3c2ccccc2)c(OC)c1` reads 0.224 µM.
The result for `COc1ccc(NC(=O)c2ccc(Br)c(C)c2)cc1N1CCN(CCCCc2ccccc2)CC1` reads 0.817 µM; that for `COc1ccc(CNC2Cc3ccccc3C2)cc1-c1ccc(S(=O)(=O)NCc2cccnc2)s1`, 1.11 µM; that for `Cc1nc2ccccc2c(=O)n1NCc1ccc(Cl)c(Cl)c1`, 0.146 µM.
Then `Cc1ccc(C)c(C2CCN(CCCCNC(=O)c3ccc(NC(=O)c4ccc(Cl)cc4)cc3)CC2)c1`, with 0.847 µM; and `CCCC(=O)NC(c1ccc(C(C)C)cc1)c1ccc2cccnc2c1O` (centres undefined), with 0.934 µM.
The compound `COc1cccc(C2(NC[C@@H](O)[C@H](Cc3ccccc3)NC(=O)c3ccccc3)CCCCC2)c1` came in with an XC50 of 0.729 µM.
The result for `CCOC(=O)c1cn(CC)c2cc(N3CCCCC3)c(F)cc2c1=O` reads 0.125 µM; that for `CC(C)CNCc1ccc(-c2cccc(CN(CCN(C)C)C(=O)CCC3CCCC3)c2)cc1`, 0.809 µM; that for `CN(C)CCNCc1cccc(-c2cccc(-c3nc4ccccc4[nH]3)c2)c1`, 0.766 µM.
